Results: ChEMBL document CHEMBL1155652, “Synthesis of the marine sponge cycloheptapeptide phakellistatin 5(1)” (2000)
Where a SMILES comes first, the peptide text is derived from it. [ ]: non-standard residue; d: D form.

Assays:
Type in all cases: functional
P388 = test: Growth inhibition of mouse P388 cells
OVCAR-3 = test: Growth inhibition of human OVCAR-3 cells
SF-295 = test: Growth inhibition of human SF295 cells
NCI-H460 = test: Growth inhibition of human NCI-H460 cells
DU-145 = test: Growth inhibition of human DU145 cells
KM-20L2 = test: Growth inhibition of human KM20L2 cells
SK-MEL-5 = test: Growth inhibition of human SK-MEL-5 cells

Measured: GI50

CC[C@H](C)[C@@H]1NC(=O)[C@H](C)NC(=O)[C@H](CCSC)NC(=O)[C@H](C)NC(=O)[C@@H](CC(N)=O)NC(=O)[C@H](Cc2ccccc2)NC(=O)[C@@H]2CCCN2C1=O [(R)-ASN-PHAKELLISTATIN 5] (cyclo(AIPF[dN]AM))
> 10 mg/L: P388 | OVCAR-3 | SF-295 | NCI-H460 | DU-145 | KM-20L2 | SK-MEL-5

CC[C@H](C)[C@@H]1NC(=O)[C@H](C)NC(=O)[C@H](CCSC)NC(=O)[C@H](C)NC(=O)[C@H](CC(N)=O)NC(=O)[C@H](Cc2ccccc2)NC(=O)[C@@H]2CCCN2C1=O [(S)-ASN-PHAKELLISTATIN 5] (cyclo(AIPFNAM))
> 10 mg/L: P388 | OVCAR-3 | SF-295 | NCI-H460 | DU-145 | KM-20L2 | SK-MEL-5
